From patent US8309558B2, “Compounds for the treatment of hepatitis C” (Bristol-Myers Squibb Company, priority 2008, dated 2012)
pEC50, pIC50: −log10 of the molar value. Where two headings read alike, the source gives them in different places.

Assays:
[1] = target: T1, HCV NS5B RdRp genotype 1b (Hepatitis C virus genotype 1b, UniProt Q9WMX2); test: Standard HCV NS5B RdRp enzyme assay; type: biochemical; conditions: HCV NS5B RdRp genotype 1b, read-out: IC50
T1 construct: The protein was expressed with an 18 amino acid C-terminal truncation to enhance the solubility; made in house; host or cells: E. coli BL21(DE3), pET21a vector
Protocol: HCV NS5B RdRp cloning, expression, and purification. The cDNA encoding the NS5B protein of HCV, genotype 1b, was cloned into the pET21a expression vector. The protein was expressed with an 18 amino acid C-terminal truncation to enhance the solubility. The E. coli competent cell line BL21(DE3) was used for expression of the protein. Cultures were grown at 37° C. for ˜4 hours until the cultures reached an optical density of 2.0 at 600 nm. The cultures were cooled to 20° C. and induced with 1 mM IPTG. Fresh ampicillin was added to a final concentration of 50 μg/ml and the cells were grown overnight at 20° C.
Cell pellets (3 L) were lysed for purification to yield 15-24 mgs of purified NS5B. The lysis buffer consisted of 20 mM Tris-HCl, pH 7.4, 500 mM NaCl, 0.5% triton X-100, 1 mM DTT, 1 mM EDTA, 20% glycerol, 0.5 mg/ml lysozyme, 10 mM MgCl2, 15 ug/ml deoxyribonuclease I, and Complete TM protease inhibitor tablets (Roche). After addition of the lysis buffer, frozen cell pellets were resuspended using a tissue homogenizer. To reduce the viscosity of the sample, aliquots of the lysate were sonicated on ice using a microtip attached to a Branson sonicator. The sonicated lysate was centrifuged at 100,000×g for 1 hr at 4° C. and filtered through a 0.2 μm filter unit (Corning).
The protein was purified using three sequential chromatography steps: Heparin sepharose CL-6B, polyU sepharose 4B, and Hitrap SP sepharose (Pharmacia). The chromatography buffers were identical to the lysis buffer but contained no lysozyme, deoxyribonuclease I, MgC12 or protease inhibitor and the NaCl concentration of the buffer was adjusted according to the requirements for charging the protein onto the column. Each column was eluted with a NaCl gradient which varied in length from 5-50 column volumes depending on the column type. After the final chromatography step, the resulting purity of the enzyme is >90% based on SDS-PAGE analysis. The enzyme was aliquoted and stored at −80° C.
Standard HCV NS5B RdRp enzyme assay. HCV RdRp genotype 1b assays were run in a final volume of 60 μl in 96 well plates (Costar 3912). The assay buffer composed of 20 mM Hepes, pH 7.5, 2.5 mM KCl, 2.5 mM MgCl2, 1 mM DTT, 1.6 U RNAse inhibitor (Promega N2515), 0.1 mg/ml BSA (Promega R3961), and 2% glycerol. All compounds were serially diluted (3-fold) in DMSO and diluted further in water such that the final concentration of DMSO in the assay was 2%. HCV RdRp genotype 1b enzyme was used at a final concentration of 28 nM. A polyA template was used at 6 nM, and a biotinylated oligo-dT12 primer was used at 180 nM final concentration. Template was obtained commercially (Amersham 27-4110). Biotinylated primer was prepared by Sigma Genosys. 3H-UTP was used at 0.6 μCi (0.29 μM total UTP). Reactions were initiated by the addition of enzyme, incubated at 30° C. for 60 min, and stopped by adding 25 μl of 50 mM EDTA containing SPA beads (4 μg/μl, Amersham RPNQ 0007). Plates were read on a Packard Top Count NXT after >1 hr incubation at room temperature.
IC50 values for compounds were determined using seven different [I]. IC50 values were calculated from the inhibition using the formula y=A+((B−A)/(1+((C/x)^D))).

HCV replicon cells = test: HCV replicon FRET / luciferase assay (96-well plates); type: cell-based; conditions: Hepatitis C virus, HCV replicon, read-out: EC50
Outline: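 Trypsinized replicon cells were seeded with compound titrations and incubated at 37 °C for various times. Alamar blue was added to gauge toxicity. Plates were then rinsed and either lysed with FRET peptide reagent for kinetic fluorescence reading or switched to phenol red-free DMEM for luciferase measurement.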

T1 sequence (Q9WMX2 2420-2992): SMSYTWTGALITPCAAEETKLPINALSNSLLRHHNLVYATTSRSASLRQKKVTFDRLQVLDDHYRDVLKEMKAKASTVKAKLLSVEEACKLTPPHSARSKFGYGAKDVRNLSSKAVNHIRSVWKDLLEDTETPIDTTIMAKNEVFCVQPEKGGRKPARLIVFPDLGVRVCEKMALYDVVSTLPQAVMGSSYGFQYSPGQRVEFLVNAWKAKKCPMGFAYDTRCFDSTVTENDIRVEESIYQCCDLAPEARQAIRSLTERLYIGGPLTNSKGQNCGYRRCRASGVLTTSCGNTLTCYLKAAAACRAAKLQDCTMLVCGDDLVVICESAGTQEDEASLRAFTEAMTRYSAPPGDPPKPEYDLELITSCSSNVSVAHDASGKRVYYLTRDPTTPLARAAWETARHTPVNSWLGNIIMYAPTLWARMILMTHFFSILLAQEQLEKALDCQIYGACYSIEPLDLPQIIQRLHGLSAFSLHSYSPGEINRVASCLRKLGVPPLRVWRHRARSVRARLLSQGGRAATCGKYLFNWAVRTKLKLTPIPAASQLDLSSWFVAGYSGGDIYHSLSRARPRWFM

SMILES	pIC50 ([1]; Table 1b)	pEC50 (HCV replicon cells; Table 1b)	pIC50 ([1]; Table 1a)	pEC50 (HCV replicon cells; Table 1a)	also measured
CNC(=O)c1c(-c2ccc(F)cc2)oc2ccc(-c3cc(C(=O)NC4(c5ccccn5)CC4)ccc3OC)cc12	> 6.60	> 6.60			
CNC(=O)c1c(-c2ccc(F)cc2)oc2ccc(-c3cc(C(=O)NCC(C)C)ccc3OCCCN3CCOCC3)cc12	> 6.60	> 6.60			
CNC(=O)c1c(-c2ccc(F)cc2)oc2ccc(-c3cc(C(=O)NC4(c5ccccn5)CC4)cc(F)c3C)cc12 [drawing 558]	> 6.60	> 6.60			
CNC(=O)c1c(-c2ccc(F)cc2)oc2ccc(-c3cccc(-c4nnc(C(C)C)o4)c3)cc12			> 6.60	> 6.60	
CNC(=O)c1c(-c2ccc(F)cc2)oc2ccc(-c3cccc(C(=O)NC(C)(C)c4cccc5ccccc45)c3)cc12			6.00 to 6.60	6.00 to 6.60	
CNC(=O)c1c(-c2ccc(F)cc2)oc2ccc(-c3cccc(C(=O)NS(=O)(=O)C(C)(C)C)c3)cc12			> 6.60	5.00 to 6.00	
CNC(=O)c1c(-c2ccc(F)cc2)oc2ccc(-c3cccc(C(=O)NCc4nccs4)c3)cc12			6.00 to 6.60	6.00 to 6.60	
CNC(=O)c1c(-c2ccc(F)cc2)oc2ccc(-c3cccc(C(=O)NCc4ccccc4F)c3)cc12			6.00 to 6.60	5.00 to 6.00	
CNC(=O)c1c(-c2ccc(F)cc2)oc2ccc(-c3cc(OCCn4ccnc4C)cc(C(=O)NCC(C)C)c3)cc12	5.00 to 6.00	5.00 to 6.00			
CNC(=O)c1c(-c2ccc(F)cc2)oc2ccc(-c3cccc(C(=O)N4CCCC(O)C4)c3)cc12 (stereo not shown)			5.00 to 6.00	5.00 to 6.00	
CCN(Cc1ccncc1)C(=O)c1ccc(-c2ccc3oc(-c4ccc(F)cc4)c(C(=O)NC)c3c2)cc1			< 5.00	5.00 to 6.00	
CNC(=O)c1c(-c2ccc(F)cc2)oc2cc([N+](=O)[O-])c(-c3ccc(OC)c(C(=O)NC4(c5ccccc5)CC4)c3)cc12	> 6.60	> 6.60			
CNC(=O)c1c(-c2ccc(F)cc2)oc2ccc(-c3cnc(OC)c(F)c3)cc12			< 5.00	5.00 to 6.00	
CNC(=O)c1c(-c2ccc(F)cc2)oc2ccc(-c3cc(C(=O)NC4(c5nc(C)no5)CC4)c(OC)cc3Cl)cc12	> 6.60	> 6.60			
CNC(=O)c1c(-c2ccc(F)cc2)oc2ccc(-c3ccc(C(=O)N4CC[C@H](NC(C)=O)C4)cc3)cc12			5.00 to 6.00	5.00 to 6.00	
CNC(=O)c1c(-c2ccc(F)cc2)oc2ccc(-c3cccc(C(=O)NC4(c5ccccc5)CC4)c3)cc12 [drawing 610]					pIC50 ([1]; untitled table after Table 1b): 8.23; pEC50 (HCV replicon cells; untitled table after Table 1b, values without asterisk): 8.45
CNC(=O)c1c(-c2ccc(F)cc2)oc2ccc(-c3cc(C(=O)NC(C)(C)c4ccccc4)ccc3OC)cc12 [drawing 355]	> 6.60	> 6.60			
CNC(=O)c1c(-c2ccc(F)cc2)oc2ccc(-c3cccc(C(=O)NC4CCC(C)CC4)c3)cc12 (stereo not shown)			> 6.60	> 6.60	
CNC(=O)c1c(-c2ccc(F)cc2)oc2ccc(-c3ccc(C(=O)N(C)C4CCN(C)C4)cc3)cc12 (stereo not shown)			< 5.00	5.00 to 6.00	

SMILES	pIC50 ([1]; Table 1b)	pEC50 (HCV replicon cells; Table 1b)	pIC50 ([1]; Table 1a)	pEC50 (HCV replicon cells; Table 1a)	also measured
CNC(=O)c1c(-c2ccc(F)cc2)oc2cc(N(CCO)S(C)(=O)=O)c(-c3cc(C(=O)NC4(c5ccccc5)CC4)ccc3F)cc12	> 6.60	> 6.60			
CNC(=O)c1c(-c2ccc(F)cc2)oc2ccc(Oc3ccc(/C=C(\NC(=O)c4ccccc4)C(=O)OC)cc3)cc12			5.00 to 6.00	5.00 to 6.00	
CNC(=O)c1c(-c2ccc(F)cc2)oc2ccc(-c3ccc(-c4cccc(/C=C/C(=O)O)c4)c(C(=O)NCC(C)C)c3)cc12	> 6.60	6.00 to 6.60			
CNC(=O)c1c(-c2ccc(F)cc2)oc2ccc(-c3cccc(C(=O)N[C@@H](CO)C(C)(C)C)c3)cc12			5.00 to 6.00	5.00 to 6.00	
CNC(=O)c1c(-c2ccc(F)cc2)oc2ccc(-c3cccc(C(=O)N[C@@H](CO)c4ccccc4)c3)cc12			6.00 to 6.60	5.00 to 6.00	
CNC(=O)c1c(-c2ccc(F)cc2)oc2ccc(-c3ccc(C(=O)NC4CC4)cc3)cc12			< 5.00	< 5.91	
CNC(=O)c1c(-c2ccc(F)cc2)oc2ccc(-c3cccc(C(=O)N[C@@H](C)c4ccc(F)cc4)c3)cc12			> 6.60	> 6.60	
CNC(=O)c1c(-c2ccc(F)cc2)oc2ccc(-c3cc(C(=O)O)ccc3Cl)cc12			5.00 to 6.00	< 5.00	
CNC(=O)c1c(-c2ccc(F)cc2)oc2ccc(-c3cc(C(=O)NC4(c5cnccn5)CC4)c(OC)cc3C)cc12					pIC50 ([1]; Table 1d (class symbols)): 6.60 to 9.00; pEC50 (HCV replicon cells; 24 h, Table 1d (class symbols)): 6.60 to 9.00
CNC(=O)c1c(-c2ccc(F)cc2)oc2ccc(-c3cccc(C(=O)N4CCCC4c4ccccc4)c3)cc12 (stereo not shown)			6.00 to 6.60	6.00 to 6.60	
CNC(=O)c1c(-c2ccc(F)cc2)oc2ccc(-c3cc(C(=O)NC4(c5ccccn5)CC4)c(OCc4cnccn4)cc3C)cc12 [drawing 660]					pIC50 ([1]; Table 1d (class symbols)): 6.60 to 9.00; pEC50 (HCV replicon cells; 24 h, Table 1d (class symbols)): 6.60 to 9.00
CNC(=O)c1c(-c2ccc(F)cc2)oc2ccc(-c3cc(C(=O)NC4(c5ccccc5)CC4)ccc3O)cc12	> 6.60	> 6.60			
CN1CN(C)c2c(-c3cccc(C(N)=O)c3)ccc3oc(-c4ccc(F)cc4)c(c23)C1=O [drawing 319]			< 5.00	< 5.00	
CNC(=O)c1c(-c2ccc(F)cc2)oc2ccc(-c3cc(C(=O)O)c(C)cc3C)c(F)c12	5.00 to 6.00	< 5.00			
CNC(=O)c1c(-c2ccc(F)cc2)oc2ccc(-c3cc(C(=O)NC4(c5ccccn5)CC4)ccc3OCCN)cc12	> 7.70	> 6.60			
CNC(=O)c1c(-c2ccc(F)cc2)oc2ccc(-c3cc(C(=O)NC4(c5ccccn5)CC4)c(OCC(C)C)cc3C)cc12					pIC50 ([1]; Table 1d (class symbols)): 6.60 to 9.00; pEC50 (HCV replicon cells; 24 h, Table 1d (class symbols)): 6.60 to 9.00
CNC(=O)c1c(-c2ccc(F)cc2)oc2ccc(-c3cc(C(=O)NC4(c5ccn(C)n5)CC4)ccc3C)cc12	> 7.70	> 6.60			
CNC(=O)c1c(-c2ccc(F)cc2)oc2cc(N(CCO)S(C)(=O)=O)c(-c3cccc(C(=O)NC(C)(C)c4nc(C)no4)c3)cc12	> 6.60	> 6.60			
CNC(=O)c1ccc(-c2ccc(-c3ccc4oc(-c5ccc(F)cc5)c(C(=O)NC)c4c3)cc2C(=O)NCC(C)C)cn1	< 5.00	< 5.00			
